“Also recorded” adds a separate entry of the source. Starred links: 1 amine or outer side, 2 acyl side, 3 side chain; linkers in the order of their positions; H or OH if unused. Positions of bridges follow the written chain, without caps; N, C: chain ends. Non-standard residues stand in square brackets, D forms with d. Residues, ends and D or L forms follow the SMILES beside them. *: point of attachment. X1 = NC1=N[C@@H]([C@H](N[*:1])C(=O)[*:2])C[C@H](O)N1; ΔAla(Z-3-ureido) = NC(=O)N/C=C(\N)C(=O)O; β3hOrn = NCCC[C@H](N)CC(=O)*; Dap = NC[C@H](N)C(=O)O
What was measured:
[1] = test system: Cy3-S13 / Cy5-L1 (T202C) ribosome complexes; test: Single-molecule L1-S13 FRET assay (ribosome conformational states); type: biochemical, E. coli
Experimental: Generation of Site-Specifically Labeled 30S Subunits and 50S Subunits.
Ribosomal protein S13 was PCR-cloned from E. coli strain K12 genomic DNA into the pPROEX HTb vector with a TEV-cleavable His6-tag and a 12-residue peptide encoding the S6 epitope for the Sfp phosphopantetheinyl transferase reaction (Yin 2006), fused at the N terminus. Following transformation of this plasmid into an E. coli ΔS13 knockout strain (Cukras 2005), cells were cultured and ribosomes were harvested as previously described (Wang 2011). Pure 30S subunits were isolated via sucrose gradient centrifugation in a low magnesium buffer (20 mM HEPES pH 7.5, 50 mM KCl, 10 mM NH4Cl, 0.5 mM EDTA, 6 mM BME, 1 mM MgCl2). 30S subunits containing Sfp-tagged S13 were isolated from this population by cobalt affinity chromatography (Clontech). Subsequently, the Sfp tag was enzymatically labeled and the His6-tag was enzymatically removed in a buffer containing 20 mM HEPES, pH 7.5, 100 mM KCl, 10 mM MgCl, and 6 mM BME. 20 μM N-Sfp-S13 30S subunits, 5 μM TEV protease, 250 μM Cy3-CoA and 25 μM Sfp were incubated for 24 h at 18° C. Sfp enzyme, TEV protease and unbound Cy3-CoA were then removed by filtration over a 100K membrane (Millipore). Prior to 70S complex formation, ribosomes were buffer exchanged into Tris-polymix buffer (Munro 2010c). 50S subunits labeled with Cy5-L1 (T202C) were prepared and purified as previously described (Munro 2010b).
Preparation of L1-S13 FRET Ribosome Complexes with tRNA^fMet or tRNA^Phe in the P Site.
Cy3-S13 30S and Cy5-L1 50S subunits were heat activated at 42° C. for 10 min in Tris-polymix Mg^2+ buffer and ribosomes were then initiated with fMet-tRNA^fMet or NAc-Phe-tRNA^Phe as previously described (Munro 2010c).
Single-Molecule L1-S13 FRET Assay.
All single-molecule FRET experiments were performed at room temperature in Tris-Polymix with 5 mM Mg^2+ buffer as previously described (Wang 2011), where oxygen scavenging and triplet-state quenching systems were employed (Dave 2009). Following surface immobilization (Munro 2007), the ribosome-bound, P-site tRNA was deacylated by incubation with 2 mM puromycin for 10 min at room temperature. The smFRET data were acquired by directly exciting the Cy3 fluorophore at 532 nm (LaserQuantum) while Cy3 and Cy5 intensities were simultaneously recorded in Metamorph (Molecular Devices) with 40 ms integration time. The data were analyzed in MATLAB (MathWorks) and plotted in Origin (OriginLab) as previously described (Munro 2007).

[2] = test system: A1408G mutant pre-translocation ribosome complexes; test: Single-molecule translocation assay (EF-G catalyzed), A1408G ribosome complexes; type: biochemical, E. coli
Text: (§1) Purification of A1408G Ribosomes.
(§2) Wild-type ribosomes and ribosomes bearing A1408G mutation were purified from a Δ7prrn E. coli MG1655 strain (RecA-) for single-molecule translocation and recycling experiments. The A1408G neomycin resistance mutation was introduced into a […] (KanR, SpecR) plasmid containing an rrnB operon (Komoda 2006) using Quickchange II site-directed mutagenesis (Stratagene). Wild-type and A1408G containing pRB102 plasmids (Komoda 2006) were then swapped into a Δ7prrn E. coli MG1655 (pKK3535, AmpR; ptRNA67, SpecR) strain. Tightly-coupled 70S ribosomes were purified from these strains in Tris-polymix buffer as previously described (Munro 2007).
(§3) Single-Molecule Translocation Assay.
(§4) Fluorescence-based, single-molecule translocation assays were carried out as previously described (Munro 2010c) on either wild-type or A1408G mutant pre-translocation ribosome complexes. Experiments were performed in Tris-polymix buffer (pH 7.5, 5 mM Mg(OAc)2) and analyzed as previously described (Munro 2010c; Wang 2011), plotting the fraction of translocating molecules as a function of time.

A1408G mutant ribosomes [3] = test: Single-molecule ribosome recycling assay (loss of Cy5-labeled L1 fluorescence), A1408G; type: biochemical, E. coli; details: neomycin 0.1-100 μM
Text: (§5) As described in the examples, this invention provides single-molecule assays for ribosome recycling which comprises surface-immobilizing a ribosome labeled on the 50S subunit in the presence of tRNA, RRF and EF-G under translation conditions; and monitoring changes in the signal from the label, wherein a change in the signal indicates recycling or lack thereof. For example, this assay can be conducted in solution or using smFRET like imaging techniques (following fluorescence decay), with the label on the ribosome being a fluorophore.
Purification of A1408G Ribosomes. […]
(§6) Single-Molecule Fluorescence Experiments.
(§7) All single-molecule fluorescence experiments were performed at room temperature in an MES-Polymix buffer that resembled the crystallization condition (50 mM MES, pH 6.5, 5.0 mM MgCl2, 350 mM NH4Cl, 5.0 mM putrescine, 5.0 mM spermidine, 5 mM (3-mercaptoethanol and 0.5 mM EDTA). Oxygen scavenging and triplet-state quenching systems used were as previously described (Dave 2009). The smFRET data were acquired with Metamorph (Molecular Device), and analyzed in MATLAB (Mathwork) and QuB (www.qub.buffalo.edu) as previously described (Munro 2010a,b). Subunit release was monitored by directly exciting the Cy5 fluorophore within surface-immobilized ribosome complexes (Coherent) at 10 mW laser power. […] Changes in fluorescence intensity were analyzed and plotted in Origin (OriginLab).

[4] = test system: wild-type 70S ribosome complexes; test: Single-molecule ribosome recycling assay (loss of Cy5-labeled L1 fluorescence), wild-type; type: biochemical, E. coli; details: wild-type ribosomes; neomycin 0.1-100 μM
Text: as §5, §6, §7

[5] = test system: wild-type pre-translocation ribosome complexes; details: Feldman 2010; cited from earlier work
A1408G mutant ribosomes [6] = test: Single-molecule FRET tRNA incorporation (aa-tRNA selection) assay, A1408G mutant ribosomes; type: biochemical, E. coli
Text: as §1, §2
(§8) Single-Molecule FRET tRNA Incorporation Assay.
The process of tRNA selection on the ribosome was monitored using single-molecule FRET by stropped-flow injection of a 10 nM solution of ternary complex (EF-Tu(GTP)·aa-tRNA) containing Phe-tRNA^Phe (Cy5-acp^3U47) to surface-immobilized ribosome complexes containing deacylated tRNA^fMet (Cy3-s^4U8) in the P site as previously described (Geggier 2010). Fluorescence and FRET traces were extracted from video and selected for analysis using automated analysis software implemented in MATLAB (MathWorks) using the segmental k-means algorithm (Qin, 1996). […]

[7] = test system: wild-type pre-translocation ribosome complexes; test: Single-molecule translocation assay (EF-G catalyzed), wild-type ribosome complexes; type: biochemical, E. coli; details: wild-type ribosomes
Experimental: as §3, §4

wild-type ribosomes = test: Single-molecule FRET tRNA incorporation (aa-tRNA selection) assay, wild-type ribosomes; type: biochemical, E. coli
Experimental: as §8
The process of tRNA selection on the ribosome was monitored using single-molecule FRET by stropped-flow injection of a 10 nM solution of ternary complex (EF-Tu(GTP)·aa-tRNA) containing Phe-tRNA^Phe (Cy5-acp^3U47) to surface-immobilized ribosome complexes containing deacylated tRNA^fMet (Cy3-s^4U8) in the P site as previously described (Geggier 2010). Fluorescence and FRET traces were extracted from video and selected for analysis using automated analysis software implemented in MATLAB (MathWorks) using the segmental k-means algorithm (Qin, 1996). Complete accommodation of Phe-tRNA^Phe into the A site was marked by the first observation of a 400 ms dwell in a high ([…]) FRET state, structurally assigned to the “classical” pre-translocation complex configuration through previous investigations (Geggier 2010). Individual experiments, in which approximately 100 accommodation events were obtained, were performed in triplicate. The mean extent of accommodation and standard deviations are plotted as a function of time. Wild type and mutant ribosomes for these experiments were purified as previously described (Feldman 2010).

[8] = deacylated tRNA^fMet in the P site, no A-site tRNA, EF-G with GDPNP

NCCC[C@H](N)CC(=O)N[C@H]1CNC(=O)[C@H]([C@H]2C[C@H](O)NC(N)=N2)NC(=O)/C(=C/NC(N)=O)NC(=O)[C@H](CO)NC(=O)[C@H](CO)NC1=O [viomycin] (β3hOrn-[Dap]SS[ΔAla(Z-3-ureido)][X1]; lactam 1-C)
FRET state stabilized (L1-S13) [1, 8]: high-FRET state was also favored; also recorded: rotated state

neomycin
ribosome conformation stabilized (L1-S13 FRET) ([1]; figure title, tRNA^fMet or tRNA^Phe in the P site): stabilizes an intermediate conformation of the ribosome | FRET state stabilized (L1-S13) ([1]; higher neomycin concentrations (>1 μM), deacylated tRNA^fMet in the P site): stabilized a ribosome configuration exhibiting an intermediate FRET value | FRET state favored (L1-S13) ([1]; low neomycin concentrations (<100 nM), deacylated tRNA^fMet in the P site): low-FRET state was favored | EF-G catalyzed translocation ([2]; A1408G mutant background, neomycin 0.01-100 μM, normalized to no drug): inhibits EF-G catalyzed translocation in a concentration dependent manner | concentration at which substrate translocation is blocked ([2]; A1408G ribosomes): above 1 μM | ribosome recycling catalyzed by RRF, EF-G and GTP (A1408G mutant ribosomes [3]): inhibits the process of ribosome recycling catalyzed by RRF, EF-G and GTP in a concentration-dependent manner; also recorded: inhibited ribosome recycling | ribosome recycling mediated by RRF and EF-G [4]: inhibited ribosome recycling | neomycin concentration inhibiting translocation as potently as viomycin [5]: higher than 100 nM | miscoding effects / incorporation of near-cognate tRNA (A1408G mutant ribosomes [6]; 100 nM neomycin): reduced; also recorded: almost entirely suppressed | selection (incorporation) of cognate and near-cognate tRNA (A1408G mutant ribosomes [6]; 20 μM neomycin): both reduced; also recorded: Inhibition persisted | concentration at which substrate translocation is blocked [7]: above 1 μM | selection of cognate tRNA (wild-type ribosomes; 100 nM neomycin, cognate (UUC) codon): negligible effects | rates of near-cognate aa-tRNA accommodation (wild-type ribosomes; 100 nM neomycin, near-cognate (UCU) codon): substantially increased | selection of both cognate and near-cognate tRNA (wild-type ribosomes; 20 μM neomycin): significantly attenuated

EF-G: GTPase elongation factor-G
FRET state stabilized (L1-S13) [1, 8]: high-FRET state was stabilized; also recorded: high-FRET, rotated state

RRF: ribosome recycling factor, purified from E. coli, C-terminal hexa-histidine tagged
FRET state stabilized (L1-S13) [1, 8]: high-FRET state was stabilized; also recorded: high-FRET rotated state

From patent US9441263B2, “Ribosomal targets for antibiotic drug discovery” (Cornell University, priority 2011, dated 2016)
